Here are results for 6 compounds from US3968230A, “Compositions containing benzodiazepindiones and method of use” (American Cyanamid Company, priority 1975, dated 1976).

This experiment deals with Clonic Seizures Caused by Pentylenetetrazole. Put plainly: Protection against clonic seizures caused by pentylenetetrazole in rats. It is filed as in vivo. The following applies: oral; for ED50: Rattus norvegicus, 2% starch vehicle, groups of at least 5 rats, pentylenetetrazole 21 to 23 mg/kg i.v. at estimated time of peak effect, protection of 50% of animals (Litchfield and Wilcoxon), read-out: Median Effective Oral Dose ED50 (protection against clonic seizures caused by pentylenetetrazole); for effectiveness as anxiolytic agent relative to the respective dextrorotatory and racemic forms of the desmethyl prior art compound (Compounds 3 and 4): rats, from ED50 table. Here is the method:
The anti-anxiety properties of the active components of the present invention have been established in a test which indicates anxiolytic activity by a measure of protection from convulsions resulting from the administration of pentylenetetrazol. Graded dose levels of the dextro and racemic forms of the compound 1,2,3,11a-tetrahydro-10-mthyl-5H-pyrrolo[2,1-c] [1,4]benzodiazepin-5,11(10H)-dione are administered orally, in a 2% starch vehicle, to groups of at least 5 rats. At the estimated time of peak effect, the rats are treated intravenously with pentylenetetrazole at a dose of 21 to 23 mg./kg. of body weight. This dose is estimated to cause clonic seizures in 99% of unprotected rats. The effective dose of the test compound for protection of 50% of the animals is calculated by the method of J. T. Litchfield and F. Wilcoxon, Journal of Pharmacology and Experimental Therapeutics, 96, 99 (1949). The results are given in the table which follows in comparison with Librium (chlordiazepoxide), Valium (diazepam) and the dextro and racemic forms of 1,2,3,11 a-tetrahydro-5H-pyrrolo[2,1-c] [1,4]benzodiazepin-5,11(10H)-dione (U.S. Pat. No. 3,732,212) all of which were tested in exactly the same manner. It has been reported [R. T. Hill and D. R. Tedeschi, "Animal Testing and Screening Procedures in Evaluating Psychotropic Drugs" in An Introduction to Psychopharmacology, Eds. R. R. Rech and K. E. Moore, Raven Press, New York, pp. 237-288 (1971) that there is a high degree of correlation between antagonism of pentylenetetrazole seizures in rats and antianxiety effects in higher warm-blooded animals.

As a reminder, the ED50 is the dose at which the effect has come halfway, by size or by number of responders. For `CN1C(=O)C2CCCN2C(=O)c2ccccc21` (racemic) [Compound 2, Racemic-1,2,3,11a-tetrahydro-10-methyl-5H-pyrrolo[2,1-c][1,4]benzodiazepin-5,11(10H)-dione], the ED50 is 20 mg/kg; the “effectiveness as anxiolytic agent relative to the respective dextrorotatory and racemic forms of the desmethyl prior art compound (Compounds 3 and 4)” value is listed as “far more effective”. With `O=C1Nc2ccccc2C(=O)N2CCCC12` (racemic) [Compound 4, Racemic-1,2,3,11a-tetrahydro-5H-pyrrolo[2,1-c]-[1,4]benzodiazepin-5,11(10H)-dione], the ED50 was 70 mg/kg. In the case of `CN1C(=O)[C@@H]2CCCN2C(=O)c2ccccc21` [Compound 1, Dextro-1,2,3,11a-tetrahydro-10-methyl-5H-pyrrolo[2,1-c][1,4]benzodiazepin-5,11(10H)-dione], the ED50 was 10 mg/kg; the “effectiveness as anxiolytic agent relative to the respective dextrorotatory and racemic forms of the desmethyl prior art compound (Compounds 3 and 4)” value was “far more effective”. With `O=C1Nc2ccccc2C(=O)N2CCC[C@@H]12` [Compound 3, Dextro-1,2,3,11a-tetrahydro-5H-pyrrolo[2,1-c]-[1,4]-benzodiazepin-5,11(10H)-dione], the 50% effective dose (ED50) was 35 mg/kg. In the case of `CNC1=Nc2ccc(Cl)cc2C(c2ccccc2)=[N+]([O-])C1` [Compound 5, chlordiazepoxide], the ED50 is 2.5 mg/kg. The same measure, in the same setting: the figure for `CN1C(=O)CN=C(c2ccccc2)c2cc(Cl)ccc21` [Compound 6, diazepam] is 1.8 mg/kg.
